Measured values published in US20230141887A1, “CRYSTAL FORM OF DIAZASPIROPYRAN COMPOUND” (MEDSHINE DISCOVERY INC., priority 2020, published 2023).
Counter-ions that a name gives are not always drawn.

Biological target: T1, AXL (Homo sapiens, UniProt P30530)
T1 construct: purchased Promega
T1 sequence (P30530 26-894): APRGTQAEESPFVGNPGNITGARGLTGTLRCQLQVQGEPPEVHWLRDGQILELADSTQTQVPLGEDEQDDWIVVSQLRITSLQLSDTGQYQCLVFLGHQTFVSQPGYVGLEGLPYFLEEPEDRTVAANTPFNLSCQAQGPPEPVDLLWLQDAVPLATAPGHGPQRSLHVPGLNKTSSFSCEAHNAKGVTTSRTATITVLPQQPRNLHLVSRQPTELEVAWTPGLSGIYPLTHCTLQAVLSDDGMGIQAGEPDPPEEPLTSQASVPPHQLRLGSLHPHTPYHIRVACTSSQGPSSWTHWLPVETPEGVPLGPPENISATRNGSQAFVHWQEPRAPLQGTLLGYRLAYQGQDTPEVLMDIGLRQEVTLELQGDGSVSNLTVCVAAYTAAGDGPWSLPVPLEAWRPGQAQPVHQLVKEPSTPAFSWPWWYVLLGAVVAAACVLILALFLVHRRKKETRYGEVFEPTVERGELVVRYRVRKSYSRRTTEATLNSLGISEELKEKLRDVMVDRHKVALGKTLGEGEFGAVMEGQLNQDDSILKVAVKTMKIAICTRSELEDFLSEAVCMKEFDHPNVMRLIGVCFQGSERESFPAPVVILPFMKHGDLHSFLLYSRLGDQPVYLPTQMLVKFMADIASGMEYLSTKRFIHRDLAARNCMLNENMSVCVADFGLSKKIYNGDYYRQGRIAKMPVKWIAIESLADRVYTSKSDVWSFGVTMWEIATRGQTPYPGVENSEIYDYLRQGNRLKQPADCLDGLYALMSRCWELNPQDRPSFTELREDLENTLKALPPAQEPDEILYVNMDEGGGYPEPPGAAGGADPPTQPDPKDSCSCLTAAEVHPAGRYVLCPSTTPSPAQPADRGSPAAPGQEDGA
Assay: Assay of AXL inhibitory activity in vitro (Promega AXL Kinase Enzyme System, ADP-Glo)
Assay type: biochemical
Details: 50 μmol/L ATP, 30° C., 60 minutes
Method: AXL Kinase Enzyme System (kinase system) was purchased from Promega. Envision multi-label Analyzer (PerkinElmer).
The enzyme, substrate, ATP and inhibitors were diluted using the buffer solution in the kit.
The assay was carried out in duplicate. 1 μl of the inhibitors of each concentration gradient, 2 μl of the AXL enzyme (6 ng), and a 2 μl mixture of the substrate and ATP (50 μmol/L ATP, 0.2 μg/μL Axltide) were added to the microplate. […] After the reaction was completed, 5 μL of ADP-Glo reagent was added to each well. The system was further reacted at 30° C. for 40 minutes. After the reaction was completed, 10 μL of kinase detection reagent was added to each well and reacted at 30° C. for 30 minutes. The chemiluminescence was then read by the PerkinElmer Envision multi-label analyzer with an integration time of 0.5 seconds.
The original data was converted into an inhibition rate, and the IC50 value can be obtained by four-parameter curve fitting.

With `CCc1nc(C(N)=O)c(Nc2ccc(N3CCC4(CCN(C)CC4)CC3)c(OC)c2)nc1NC1CCOCC1` [Trifluoroacetate salt of compound A, reference compound] the IC50 was 5.76 nM.
